In ChEMBL document CHEMBL3045874, “2,4-D based herbicidal ionic liquids” (Tetrahedron, 2012):

Assays:
[1] = test system: Chenopodium album; test: Herbicidal activity against Chenopodium album assessed as weed control at 0.02 M measured after 30 days of treatment relative to control; type: functional
[2] = test system: Capsella bursa-pastoris; test: Herbicidal activity against Capsella bursa-pastoris assessed as weed control at 0.01 M measured after 6 days of treatment relative to control; type: functional
[3] = test system: Thlaspi arvense; test: Herbicidal activity against Thlaspi arvense assessed as weed control at 0.02 M measured after 6 days of treatment relative to control; type: functional
[4] = test system: Chenopodium album; test: Herbicidal activity against Chenopodium album assessed as weed control at 0.02 M measured after 6 days of treatment relative to control; type: functional
[5] = test system: Capsella bursa-pastoris; test: Herbicidal activity against Capsella bursa-pastoris assessed as weed control at 0.02 M measured after 6 days of treatment relative to control; type: functional
[6] = test system: Chenopodium album; test: Herbicidal activity against Chenopodium album assessed as weed control at 0.01 M measured after 30 days of treatment relative to control; type: functional
[7] = test system: Thlaspi arvense; test: Herbicidal activity against Thlaspi arvense assessed as weed control at 0.02 M measured after 30 days of treatment relative to control; type: functional
[8] = test system: Capsella bursa-pastoris; test: Herbicidal activity against Capsella bursa-pastoris assessed as weed control at 0.02 M measured after 30 days of treatment relative to control; type: functional
[9] = test system: Thlaspi arvense; test: Herbicidal activity against Thlaspi arvense assessed as weed control at 0.01 M measured after 6 days of treatment relative to control; type: functional
[10] = test system: Thlaspi arvense; test: Herbicidal activity against Thlaspi arvense assessed as weed control at 0.01 M measured after 30 days of treatment relative to control; type: functional
[11] = test system: Chenopodium album; test: Herbicidal activity against Chenopodium album assessed as weed control at 0.01 M measured after 6 days of treatment relative to control; type: functional
[12] = test system: Capsella bursa-pastoris; test: Herbicidal activity against Capsella bursa-pastoris assessed as weed control at 0.01 M measured after 30 days of treatment relative to control; type: functional
[13] = buffer
[14] = Decomposition temperature of 5 % of the compound; type: physicochemical
[15] = Glass transition temperature of the compound; type: physicochemical
[16] = Decomposition temperature of the compound; type: physicochemical
[17] = Melting point of the compound; type: physicochemical
[18] = test system: Chenopodium album; test: Herbicidal activity against Chenopodium album assessed as weed control at 450 g/ha; type: functional
[19] = test system: Centaurea cyanus; test: Herbicidal activity against Centaurea cyanus assessed as weed control at 450 g/ha; type: functional
[20] = Cold crystallization temperature of the compound; type: physicochemical

O=C([O-])COc1ccc(Cl)cc1Cl.[Na+] gave an Activity [1] of 75%, an Activity [2] of 28% and an Activity [3] of 48%. The Activity [4] was 60%, the Activity [5] was 55% and the Activity [6] was 25%. For the same molecule, the Activity [7] was 100%, the Activity [8] was 100% and the Activity [9] was 31%. It also gave an Activity [10] of 100%, an Activity [11] of 55% and an Activity [12] of 100%.
With CCCC[N+]1(C)CCOCC1.O=C([O-])COc1ccc(Cl)cc1Cl the solubility [13] was “soluble”.
With CCCC[N+]1(C)CCCC1.O=C([O-])COc1ccc(Cl)cc1Cl the solubility [13] was “soluble”.
For CCCCCOC[N+]1(C)CCCCC1.O=C([O-])COc1ccc(Cl)cc1Cl, the solubility [13] was “soluble”.
With CCCOC[N+]1(C)CCCCC1.O=C([O-])COc1ccc(Cl)cc1Cl the solubility [13] was “soluble”.
With C[N+]1(C)CCCCC1.O=C([O-])COc1ccc(Cl)cc1Cl the solubility [13] was “soluble”.
For C[n+]1cccc(C(N)=O)c1.O=C([O-])COc1ccc(Cl)cc1Cl, the solubility [13] was “soluble”.
In the case of CCCCCCCCCCCCCCCC[n+]1ccccc1.O=C([O-])COc1ccc(Cl)cc1Cl, the solubility [13] is reported as “soluble”.
With CCCCCCCCSCn1cc[n+](C)c1.O=C([O-])COc1ccc(Cl)cc1Cl the solubility [13] was “soluble”.
With CCCCCCCCOCn1cc[n+](C)c1.O=C([O-])COc1ccc(Cl)cc1Cl the solubility [13] was “soluble”.
For CCCCCCCCCCSC[N+](C)(C)CCO.O=C([O-])COc1ccc(Cl)cc1Cl, the solubility [13] was “soluble”, the T [14] was 205 °C and the T [15] was -35 °C. It also gave a T [16] of 219 °C.
In the case of C[N+](C)(CCO)COC1CCCCCCCCCCC1.O=C([O-])COc1ccc(Cl)cc1Cl, the Tm [17] is reported as 108 °C, the T [14] is reported as 242 °C and the T [16] is reported as 280 °C.
Work on CNC.O=C(O)COc1ccc(Cl)cc1Cl [2,4-D-Dimethylammonium] yielded an Activity [18] of 60% and an Activity [19] of 20%.
CCCCCC(CC)OC(=O)COc1ccc(Cl)cc1Cl [2,4-D-Ethylhexyl] gave an Activity [18] of 100% and an Activity [19] of 80%.
For C=CC[N+](C)(C)CC=C.O=C([O-])COc1ccc(Cl)cc1Cl [DIALLYLDIMETHYLAMMONIUM(2,4-DICHLOROPHENOXY)ACETATE], the solubility [13] was “soluble”, the T [14] was 187 °C and the T [15] was -42 °C. It also gave a T [16] of 196 °C.
With CCCCCCCCCC[N+](C)(C)CCCCCCCCCC.O=C([O-])COc1ccc(Cl)cc1Cl [DIDECYLDIMETHYLAMMONIUM(2,4-DICHLOROPHENOXY)ACETATE] the Activity [1] was 100%, the Tm [17] was -3 °C and the Activity [2] was 81%. It also gave an Activity [3] of 96%, a T [14] of 208 °C and an Activity [4] of 98%. The T [15] was -50 °C, the Activity [5] was 99% and the Activity [6] was 100%. For the same molecule, the Activity [7] was 100%, the Activity [8] was 100% and the Activity [9] was 82%. It also gave an Activity [10] of 100%, a T [16] of 260 °C and an Activity [11] of 89%. The Activity [12] was 100% and the T [20] was -39 °C.
Molecule CCCCCCCCCCCCCCCC[N+](C)(C)CCO.O=C([O-])COc1ccc(Cl)cc1Cl [DODECYLDI(POLYOXYETHYLENE)METHYLAMMONIUM(2,4-DICHLOROPHENOXY)ACETATE] has a T [14] of 219 °C, a T [15] of -54 °C and a T [16] of 285 °C.
Work on CCCCCCCCCCCC[N+](C)(C)CCOc1ccccc1.O=C([O-])COc1ccc(Cl)cc1Cl [DODECYLDIMETHYLPHENOXYETHYLAMMONIUM(2,4-DICHLOROPHENOXY)ACETATE] yielded a T [14] of 214 °C, a T [15] of -42 °C and a T [16] of 273 °C.
In the case of CCCCCCCCCCCCCCCC[N+](C)(C)C.O=C([O-])COc1ccc(Cl)cc1Cl [HEXADECYLTRIMETHYLAMMONIUM(2,4-DICHLOROPHENOXY)ACETATE], the Tm [17] is reported as -20 °C, the T [14] is reported as 218 °C and the T [16] is reported as 253 °C.
